According to ChEMBL document CHEMBL3991941, “GLEPP-1 inhibitors in the treatment of autoimmune and/or inflammatory disorders” (2011):
The source made the active and inactive calls. The calls are words filed in the database; no cut-off is given here.

Legend:
Mus musculus [1] = experiment: Antiinflammatory activity in C3H mouse model of thioglycollate-induced lymphocyte recruitment assessed as decrease in blood neutrophils at 30 mg/kg, po dosed 15 mins before thioglycollate stimulation by Beckman Coulter counting based cell counting method relative to untreated control; format: functional; set-up: scale not given: the % may be the effect or the level left
Mus musculus [2] = experiment: Antiinflammatory activity in C3H mouse model of thioglycollate-induced lymphocyte recruitment assessed as decrease in blood macrophages at 30 mg/kg, po dosed 15 mins before thioglycollate stimulation by Beckman Coulter counting based cell counting method relative to untreated control; format: functional; set-up: scale not given: the % may be the effect or the level left
Mus musculus [3] = experiment: Antiinflammatory activity in C3H mouse model of thioglycollate-induced lymphocyte recruitment assessed as decrease in blood lymphocytes at 30 mg/kg, po dosed 15 mins before thioglycollate stimulation by Beckman Coulter counting based cell counting method relative to untreated control; format: functional; set-up: scale not given: the % may be the effect or the level left
Mus musculus [4] = experiment: Reduction in colon weight in Balb/c mouse model of dextran sodium sulfate-induced ulcerative colitis at 10 mg/kg, po dosed twice daily at days 3,4, 5 and 6 after the induction of the ulcerative colitis and measured 7 days post ulcerative colitis induction; format: functional; set-up: scale not given: the % may be the effect or the level left
Mus musculus [5] = experiment: Reduction in splenomegaly in Balb/c mouse model of dextran sodium sulfate-induced ulcerative colitis at 100 mg/kg, po dosed twice daily at days 3,4, 5 and 6 after the induction of the ulcerative colitis and measured 7 days post ulcerative colitis induction; format: functional; set-up: scale not given: the % may be the effect or the level left
Mus musculus [6] = experiment: Reduction in body weight loss in Balb/c mouse model of dextran sodium sulfate-induced ulcerative colitis at 10 to 100 mg/kg, po dosed twice daily at days 3,4, 5 and 6 after the induction of the ulcerative colitis and measured 7 days post ulcerative colitis induction; format: functional, organism-based
Mus musculus [7] = experiment: Reduction in colon weight in Balb/c mouse model of dextran sodium sulfate-induced ulcerative colitis at 30 mg/kg, po dosed twice daily at days 3,4, 5 and 6 after the induction of the ulcerative colitis and measured 7 days post ulcerative colitis induction; format: functional; set-up: scale not given: the % may be the effect or the level left
Mus musculus [8] = experiment: Reduction in splenomegaly in Balb/c mouse model of dextran sodium sulfate-induced ulcerative colitis at 30 mg/kg, po dosed twice daily at days 3,4, 5 and 6 after the induction of the ulcerative colitis and measured 7 days post ulcerative colitis induction; format: functional; set-up: scale not given: the % may be the effect or the level left
Mus musculus [9] = experiment: Reduction in colon weight in Balb/c mouse model of dextran sodium sulfate-induced ulcerative colitis at 100 mg/kg, po dosed twice daily at days 3,4, 5 and 6 after the induction of the ulcerative colitis and measured 7 days post ulcerative colitis induction; format: functional; set-up: scale not given: the % may be the effect or the level left

SMILES | Activity (Mus musculus [1]) [%] | Activity (Mus musculus [2]) [%] | Activity (Mus musculus [3]) [%] | Activity (Mus musculus [4]) [%] | Activity (Mus musculus [5]) [%] | Activity (Mus musculus [6]) | Activity (Mus musculus [7]) [%] | Activity (Mus musculus [8]) [%] | Activity (Mus musculus [9]) [%]
CCCCCCN(Cc1ccc(C#Cc2ccc(CCCC)cc2)cc1)C(=O)c1ccc(O)c(C(=O)O)c1 | 41 | 62 | 41 |  |  |  |  |  | 
CCCCCCc1ccc(C#Cc2ccc(N(Cc3ccc(C(F)(F)F)cc3)C(=O)C(=O)O)cc2)cc1 | 15 | 32 | 21 |  |  |  |  |  | 
CCCCCCN(Cc1ccc(C#Cc2ccc(CCCC)cc2)cc1)c1ccc(C(=O)O)c(O)c1 | 45 | 65 | 23 |  |  |  |  |  | 
CCCCCCc1ccc(C#Cc2ccc(CN(C(=O)C(=O)O)C(C)(C)c3cccc(Cl)c3)cc2)cc1 | 25 | 52 | 39 |  |  |  |  |  | 
CCCCCCN(Cc1ccc(C#Cc2ccc(CCC)cc2)cc1)c1ccc(F)c(C(=O)O)c1 | -6 | 26 | 4 |  |  |  |  |  | 
CCCCCCc1ccc(C#Cc2ccc(CN(Cc3ccc(C(F)(F)F)cc3)C(=O)C(=O)O)cc2)cc1 | 27 | 27 | 29 |  |  |  |  |  | 
CCCCCCN(Cc1ccccc1C#Cc1ccc(CCCC)cc1)C(=O)c1ccc(O)c(C(=O)O)c1 |  |  |  | -47 | -45 | Active | -50 | -25 | 
CCCCCCN(Cc1ccc(F)c(C(=O)O)c1)c1ccc(C#Cc2ccc(CCCC)cc2)cc1 | 28 | 32 | 8 |  |  |  |  |  | 
O=C(O)C(=O)N(Cc1ccc(C#CCCCCCCCCCF)cc1)Cc1ccc(C(F)(F)F)cc1 | 16 | 36 | 24 |  |  |  |  |  | 
CCCCCCN(Cc1ccc(C#Cc2ccc(C(C)(C)C)cc2)cc1)c1ccc(F)c(C(=O)O)c1 | 36 | 42 | 13 |  |  |  |  |  | 
CCCCCCN(Cc1ccc(C#Cc2ccc(CCCC)cc2)cc1)c1ccc(O)c(C(=O)O)c1 | 44 | 50 | 47 | -22 | -65 |  | -28 | -31 | -35
CCCCc1ccc(C#Cc2ccc(CN(CC3CCCC3)c3ccc(F)c(C(=O)O)c3)cc2)cc1 | 36 | 37 | 23 |  |  |  |  |  | 
